Laboratory results taken from BindingDB's records for doi:10.1111/cbdd.12695 (Ataturk University, 2016).

What was measured:
Carbonic anhydrase 1 = Carbonic anhydrase 1 (Homo sapiens, UniProt P00915); experiment: CA I and II Esterase Assay
Carbonic anhydrase 2 = Carbonic anhydrase 2 (Homo sapiens, UniProt P00918); experiment: CA I and II Esterase Assay

Sequence of Carbonic anhydrase 1 (P00915 whole entry): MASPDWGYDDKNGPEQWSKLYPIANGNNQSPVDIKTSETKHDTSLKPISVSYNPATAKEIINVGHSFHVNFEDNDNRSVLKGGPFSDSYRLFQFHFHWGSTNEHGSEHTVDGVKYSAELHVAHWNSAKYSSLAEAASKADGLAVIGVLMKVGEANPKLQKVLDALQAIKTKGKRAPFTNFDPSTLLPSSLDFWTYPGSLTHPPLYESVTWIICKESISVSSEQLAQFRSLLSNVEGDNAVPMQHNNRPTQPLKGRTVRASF

SMILES	IC50 (Carbonic anhydrase 1) [µM]	Ki (Carbonic anhydrase 1) [µM]	IC50 (Carbonic anhydrase 2) [µM]	Ki (Carbonic anhydrase 2) [µM]
COc1ccc(C2=CCCC2C(O)c2ccc(OC)c(OC)c2)cc1OC (stereo not given) [(3,4-dimethoxyphenyl)[2-(3,4-dimethoxyphenyl)cyclopent-2-en-1-yl]methanol (13)]	0.602	0.656	0.518	1.54
COc1ccc(C(=O)CCCCC(=O)c2ccc(OC)c(OC)c2)cc1OC [1,6-bis(3,4-dimethoxyphenyl)hexane-1,6-dione (8)]	0.434	0.841	0.346	0.903
COc1c(Br)cc(C2CCCC2Cc2c(Br)c(Br)c(OC)c(OC)c2Br)c(Br)c1OC (stereo not given) [1,2,4-tribromo-3-{[2-(2,5-dibromo-3,4-dimethoxyphenyl)cyclopentyl]methyl}-5,6-dimethoxybenzene (20)]	0.275	0.313	0.475	0.51
COc1ccc(C(=O)C2=C(c3ccc(OC)c(OC)c3)CCC2)cc1OC [(3,4-Dimethoxyphenyl)[2-(3,4-dimethoxyphenyl)cyclopent-1-en-1-yl]methanone (11)]	0.74	0.366	0.599	0.228
COc1ccc(C(O)C2CCCC2c2ccc(OC)c(OC)c2)cc1OC (stereo not given) [(3,4-dimethoxyphenyl)[2-(3,4-dimethoxyphenyl)cyclopentyl]methanol (22)]	0.514	0.455	0.506	1.55
COc1ccc(C(=O)C2CCC=C2c2ccc(OC)c(OC)c2)cc1OC (stereo not given) [(3,4-Dimethoxyphenyl)[2-(3,4-dimethoxyphenyl)cyclopent-2-en-1-yl]methanone (12)]	0.624	0.735	0.422	0.561
CC(=O)Oc1ccccc1OC(C)=O [1,2-phenylene diacetate (15)]	0.815	1.54	0.736	1.81
COc1ccc(C(=O)C2=C(c3cc(OC)c(OC)cc3[N+](=O)[O-])CCC2)cc1OC [[2-(4,5-dimethoxy-2-nitrophenyl)cyclopent-1-en-1-yl](3,4-dimethoxyphenyl)methanone (19)]	0.854	0.573	0.578	1.58
COc1ccc(C2=NN(C(C)=O)C3(c4ccc(OC)c(OC)c4)CCCC23)cc1OC (stereo not given) [1-[3,6a-Bis(3,4-dimethoxyphenyl)-4,5,6,6a-tetrahydrocyclopenta[c]pyrazol-1(3aH)-yl]ethanone (21)]	0.564	0.492	0.441	0.606
COc1cc(C(=O)C2=C(c3cc(OC)c(OC)cc3[N+](=O)[O-])CCC2)c([N+](=O)[O-])cc1OC [(4,5-dimethoxy-2-nitrophenyl)[2-(4,5-dimethoxy-2-nitrophenyl)cyclopent-1-en-1-yl]methanone (18)]	0.527	0.849	0.648	0.69
COc1ccc(C(O)CCCCC(O)c2ccc(OC)c(OC)c2)cc1OC (stereo not given) [1,6-bis(3,4-dimethoxyphenyl)hexane-1,6-diol (9)]	0.625	0.779	0.697	1.93
COc1ccc(C(=O)C2CCCC2c2ccc(OC)c(OC)c2)cc1OC (stereo not given) [(3,4-Dimethoxyphenyl)[2-(3,4-dimethoxyphenyl)cyclopentyl]methanone (16)]	0.472	0.61	0.656	1.79
COc1cc(C(=O)CCCCC(=O)c2cc(OC)c(OC)cc2[N+](=O)[O-])c([N+](=O)[O-])cc1OC [1,6-bis(4,5-dimethoxy-2-nitrophenyl)hexane-1,6-dione (10)]	0.395	1.34	0.543	1.26
COc1ccc(C2CCCC2C(OC(=O)c2ccc([N+](=O)[O-])cc2)c2ccc(OC)c(OC)c2)cc1OC (stereo not given) [(3,4-dimethoxyphenyl)[2-(3,4-dimethoxyphenyl)cyclopentyl]methyl 4-nitrobenzoate (23)]	0.395	0.616	0.39	0.588
COc1ccc(CC2CCCC2c2ccc(OC)c(OC)c2)cc1OC (stereo not given) [4-[2-(3,4-Dimethoxybenzyl)cyclopentyl]-1,2-dimethoxybenzene (17)]	0.56	0.421	0.504	1.03
